The results in this text go back to patent US20260285855A1, “HETEROARYL DERIVATIVES AS DDRS INHIBITORS” (CHIESI FARMACEUTICI S.P.A., priority 2023, published 2026).

SMILES strings stand for the structures. Where two headings read alike, the source gives them in different places.

One experiment addresses T1, DDR2 (Homo sapiens, UniProt Q16832).
T1 construct: purchased Life Technologies
T1 sequence (Q16832 22-855): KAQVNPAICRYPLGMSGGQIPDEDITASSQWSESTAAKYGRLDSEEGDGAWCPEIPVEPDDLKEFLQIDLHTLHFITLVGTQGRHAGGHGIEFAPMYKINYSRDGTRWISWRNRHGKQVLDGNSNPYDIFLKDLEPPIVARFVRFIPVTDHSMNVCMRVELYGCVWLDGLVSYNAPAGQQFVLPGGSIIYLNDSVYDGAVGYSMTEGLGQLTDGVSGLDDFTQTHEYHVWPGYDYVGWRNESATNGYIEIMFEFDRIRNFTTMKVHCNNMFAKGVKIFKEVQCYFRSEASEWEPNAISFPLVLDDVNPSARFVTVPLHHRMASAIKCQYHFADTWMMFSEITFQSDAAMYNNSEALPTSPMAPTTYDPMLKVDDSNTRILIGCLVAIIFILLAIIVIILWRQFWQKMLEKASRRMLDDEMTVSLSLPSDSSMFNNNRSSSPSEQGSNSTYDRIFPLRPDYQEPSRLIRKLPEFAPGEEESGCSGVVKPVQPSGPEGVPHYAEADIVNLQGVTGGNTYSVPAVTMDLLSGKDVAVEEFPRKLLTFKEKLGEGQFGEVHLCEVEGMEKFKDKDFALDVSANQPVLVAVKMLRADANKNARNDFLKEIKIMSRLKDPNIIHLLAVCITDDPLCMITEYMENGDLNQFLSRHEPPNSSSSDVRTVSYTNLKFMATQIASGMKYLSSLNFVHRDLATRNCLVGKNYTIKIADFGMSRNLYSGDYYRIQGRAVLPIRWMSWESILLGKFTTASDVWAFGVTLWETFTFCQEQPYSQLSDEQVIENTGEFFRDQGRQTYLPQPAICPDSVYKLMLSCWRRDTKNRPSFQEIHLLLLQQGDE
Briefly: LanthaScreen Europium Kinase Binding assay, DDR2. As for the experimental part: (§1) DDR1 and DDR2 binding assays were performed using Life Technologies LanthaScreen™ Europium Kinase Binding assay. […] IC50 values were determined in GraphPad Prism 7.0 software, using 4 parameter model: log (inhibitor) vs. response. IC50 values were converted in Ki using the Cheng-Prusoff equation (Ki-IC50/(1+ [Tracer]/Kd).
On the technique in general: TR-FRET usually uses a lanthanide donor and a delayed reading to cut background.

The target of the next experiment is T2, DDR1 (Homo sapiens, UniProt Q08345).
T2 construct: purchased Carna Biosciences
T2 sequence (Q08345 19-913): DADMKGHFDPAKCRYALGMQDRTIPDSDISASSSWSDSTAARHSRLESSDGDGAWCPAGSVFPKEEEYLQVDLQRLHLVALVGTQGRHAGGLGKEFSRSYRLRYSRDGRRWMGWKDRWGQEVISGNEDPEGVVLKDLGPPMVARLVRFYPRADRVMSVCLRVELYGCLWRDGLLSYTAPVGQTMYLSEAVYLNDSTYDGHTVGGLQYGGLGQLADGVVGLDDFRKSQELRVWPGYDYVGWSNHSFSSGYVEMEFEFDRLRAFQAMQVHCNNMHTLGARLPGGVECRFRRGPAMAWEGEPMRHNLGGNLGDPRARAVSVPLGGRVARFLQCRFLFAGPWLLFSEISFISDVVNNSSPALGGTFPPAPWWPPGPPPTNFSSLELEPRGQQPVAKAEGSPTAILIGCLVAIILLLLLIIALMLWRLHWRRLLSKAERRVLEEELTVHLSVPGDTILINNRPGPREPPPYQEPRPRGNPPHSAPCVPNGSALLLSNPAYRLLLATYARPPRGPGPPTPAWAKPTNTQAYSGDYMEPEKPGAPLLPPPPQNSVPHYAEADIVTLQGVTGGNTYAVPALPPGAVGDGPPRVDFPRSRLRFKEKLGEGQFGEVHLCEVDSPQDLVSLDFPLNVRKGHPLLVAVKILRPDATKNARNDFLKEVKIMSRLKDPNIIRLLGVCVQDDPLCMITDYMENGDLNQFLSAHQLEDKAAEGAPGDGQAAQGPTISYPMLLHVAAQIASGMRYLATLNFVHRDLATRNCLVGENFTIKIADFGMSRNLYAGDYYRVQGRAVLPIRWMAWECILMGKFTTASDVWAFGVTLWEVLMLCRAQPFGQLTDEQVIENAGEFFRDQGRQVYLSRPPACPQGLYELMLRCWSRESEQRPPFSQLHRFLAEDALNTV
Kind of experiment: LanthaScreen Europium Kinase Binding assay, DDR1. The method, then: as §1

[1] abbreviates: 5 nM DDR2, 10 nM Kinase Tracer 178, 1 h at rt, Ki from IC50 by Cheng-Prusoff, read-out: Ki DDR2.
Where [2] appears, read: 5 nM DDR1, 20 nM Kinase Tracer 178, 1 h at rt, Ki from IC50 by Cheng-Prusoff, read-out: Ki DDR1.
Setting [3] is: same binding assay, numeric values.

By Ki is commonly meant the equilibrium dissociation constant of an inhibitor or competing ligand from its target. In the case of `O=C(Nc1cc(C(F)(F)F)ccn1)NC1CC2(C1)CN(C(=O)c1ccnc3[nH]ncc13)C2` [Example 145, 1-(2-(1H-pyrazolo[3,4-b]pyridine-4-carbonyl)-2-azaspiro[3.3]heptan-6-yl)-3-(4-(trifluoromethyl)pyridin-2-yl)urea], the values for the inhibitory constant (Ki) on DDR2 (setting [1]) and on DDR1 (setting [2]) were 5 to 25 nM and less than 5 nM, respectively.
Turning to `Cc1ccc(OC(F)(F)F)cc1NC(=O)CC1CC2(C1)CN(C(=O)c1cnn3ccn(C)c13)C2` [Example 278, 2-(2-(1-methyl-1H-imidazo[1,2-b]pyrazole-7-carbonyl)-2-azaspiro[3.3]heptan-6-yl)-N-(2-methyl-5-(trifluoro-methoxy)phenyl)acetamide], the Ki at DDR2 (setting [1]) is 5 to 25 nM; at DDR1 (setting [2]) it was less than 5 nM.
Turning to `CN(C(=O)Nc1cncc(C(F)(F)F)c1)C1CC2(C1)CN(C(=O)c1cnn3cc(-c4cnn(C)c4)ccc13)C2` [Example 231, 1-methyl-1-(2-(6-(1-methyl-1H-pyrazol-4-yl)pyrazolo[1,5-a]pyridine-3-carbonyl)-2-azaspiro[3.3]heptan-6-yl)-3-(5-(trifluoromethyl)pyridin-3-yl)urea], the Ki was 5 to 25 nM on DDR2 (setting [1]) and less than 5 nM at DDR1 (setting [2]).
Regarding `O=C(Nc1cccc(C(F)(F)F)c1)OC1CC2(C1)CN(C(=O)c1cnn3ccsc13)C2` [Example 147, 2-(pyrazolo[5,1-b]thiazole-7-carbonyl)-2-azaspiro[3.3]heptan-6-yl(3-(trifluoromethyl)phenyl)carbamate], the Ki at DDR2 (setting [1]) and on DDR1 (setting [2]) was less than 5 nM throughout.
For `Cc1ncc(C(F)(F)F)cc1NC(=O)NC1CC2(C1)CN(C(=O)c1cnn3ccn(C)c13)C2` [Example 171, 1-(2-(1-methyl-1H-imidazo[1,2-b]pyrazole-7-carbonyl)-2-azaspiro[3.3]heptan-6-yl)-3-(2-methyl-5-(trifluoromethyl)pyridin-3-yl)urea], the results for the Ki at DDR2 (setting [1]) and at DDR1 (setting [2]) were 5 to 25 nM and less than 5 nM, respectively.
For `CC1(NC(=O)Nc2cccc(C(F)(F)F)c2)CC2(CN(C(=O)c3ncnc4ccsc34)C2)C1` [Example 191], in that order: 5 to 25 nM and less than 5 nM.
In the same order, the values of `COCCc1cn2ncc(C(=O)N3CC4(CC(N(C)C(=O)Nc5cncc(C(F)(F)F)c5)C4)C3)c2n1C` [Example 225, 1-(2-(2-(2-methoxyethyl)-1-methyl-1H-imidazo[1,2-b]pyrazole-7-carbonyl)-2-azaspiro[3.3]heptan-6-yl)-1-methyl-3-(5-(trifluoromethyl)pyridin-3-yl)urea] are 25 to 100 nM and less than 5 nM.
On to `CN(C(=O)Nc1cc(OC(F)(F)F)ccc1F)C1CC2(C1)CN(C(=O)c1cnn3ccn(C)c13)C2` [Example 132, 3-(2-fluoro-5-(trifluoromethoxy)phenyl)-1-methyl-1-(2-(1-methyl-1H-imidazo[1,2-b]pyrazole-7-carbonyl)-2-azaspiro[3.3]heptan-6-yl)urea], for which the Ki at DDR2 (setting [1]) was 5 to 25 nM; on DDR1 (setting [2]) it was less than 5 nM.
Take `O=C(Nc1cccc(C(F)(F)F)c1)NC1CC2(C1)CN(C(=O)c1ccnc3[nH]ccc13)C2` [Example 115, 1-(2-(1H-pyrrolo[2,3-b]pyridine-4-carbonyl)-2-azaspiro[3.3]heptan-6-yl)-3-(3-(trifluoromethyl)phenyl)urea]: the inhibition constant (Ki) is 5 to 25 nM at DDR2 (setting [1]) and less than 5 nM at DDR1 (setting [2]).
`CN(C(=O)Nc1cc(C(F)(F)F)ncn1)C1CC2(C1)CN(C(=O)c1cnn3ccn(C)c13)C2` [Example 170, 1-methyl-1-(2-(1-methyl-1H-imidazo[1,2-b]pyrazole-7-carbonyl)-2-azaspiro[3.3]heptan-6-yl)-3-(6-(trifluoromethyl)pyrimidin-4-yl)urea]: the values for the Ki at DDR2 (setting [1]) and at DDR1 (setting [2]) were greater than 100 nM and 5 to 25 nM, respectively.
With `O=C(NC1CC2(C1)CN(C(=O)c1cnn3ccncc13)C2)c1cccc(C(F)(F)F)c1` [Example C1, N-(2-(pyrazolo[1,5-a]pyrazine-3-carbonyl)-2-azaspiro[3.3]heptan-6-yl)-3-(trifluoromethyl)benzamide, reference compound], the “DDR2 Ki (nM)” value at DDR2 (setting [3]) is given as “did not show a binding affinity”. Further, the Ki at DDR2 (same binding assay, numeric values, read-out: DDR2 Ki) is greater than 500 nM; on DDR1 (same binding assay, numeric values, read-out: DDR1 Ki), greater than 500 nM. For the same molecule, the “DDR1 Ki (nM)” value at DDR1 (setting [3]) is reported as “did not show a binding affinity”.
Consider `O=C(Nc1cccc(C(F)(F)F)c1)NC1CC2(C1)CN(C(=O)c1cnc3[nH]ccc3c1)C2` [Example 3, 1-(2-(1H-pyrrolo[2,3-b]pyridine-5-carbonyl)-2-azaspiro[3.3]heptan-6-yl)-3-(3-(trifluoromethyl)phenyl)urea], for which the inhibition constant Ki at DDR2 (setting [1]) and on DDR1 (setting [2]) was 25 to 100 nM each time.
Regarding `COc1ccc(OC(F)(F)F)cc1NC(=O)NC1CC2(C1)CN(C(=O)c1cnn3ccsc13)C2` [Example 23, 1-(2-methoxy-5-(trifluoromethoxy)phenyl)-3-(2-(pyrazolo[5,1-b]thiazole-7-carbonyl)-2-azaspiro[3.3]heptan-6-yl)urea], the inhibitory constant (Ki) at DDR2 (setting [1]) and on DDR1 (setting [2]) was less than 5 nM in each case.
Turning to `COc1c(CO)cc(C(F)(F)F)cc1NC(=O)NC1CC2(C1)CN(c1cnc3[nH]ncc3c1)C2` [Example 312, 1-(2-(1H-pyrazolo[3,4-b]pyridin-5-yl)-2-azaspiro[3.3]heptan-6-yl)-3-(3-(hydroxymethyl)-2-methoxy-5-(trifluoromethyl)phenyl)urea], the Ki on DDR2 (setting [1]) is 5 to 25 nM; on DDR1 (setting [2]) it was less than 5 nM.
For `COc1ccc(OC(F)(F)F)cc1NC(=O)NC1CC2(C1)CN(C(=O)c1ccnc3ccsc13)C2` [Example 48, 1-(2-methoxy-5-(trifluoromethoxy)phenyl)-3-(2-(thieno[3,2-b]pyridine-7-carbonyl)-2-azaspiro[3.3]heptan-6-yl)urea], the inhibitory constant (Ki) was 5 to 25 nM on DDR2 (setting [1]) and less than 5 nM on DDR1 (setting [2]).
On to `CN(C(=O)Nc1cncc(C(F)(F)F)c1)C1CC2(C1)CN(C(=O)c1cnn3ccc(N4CCCC4)cc13)C2` [Example 214, 1-methyl-1-(2-(5-(pyrrolidin-1-yl)pyrazolo[1,5-a]pyridine-3-carbonyl)-2-azaspiro[3.3]heptan-6-yl)-3-(5-(trifluoromethyl)pyridin-3-yl)urea], for which the Ki is 5 to 25 nM on DDR2 (setting [1]) and less than 5 nM on DDR1 (setting [2]).
For `CCc1ncc(C(F)(F)F)cc1NC(=O)NC1CC2(C1)CN(C(=O)c1cnn3ccn(C)c13)C2` [Example 309, 1-(2-ethyl-5-(trifluoromethyl)pyridin-3-yl)-3-(2-(1-methyl-1H-imidazo[1,2-b]pyrazole-7-carbonyl)-2-azaspiro[3.3]heptan-6-yl)urea], in that order: 5 to 25 nM and less than 5 nM.
Turning to `Cn1ccn2ncc(C(=O)N3CC4(CC(NC(=O)Nc5cc(F)cc(C(F)(F)F)c5)C4)C3)c12` [Example 106, 1-(3-fluoro-5-(trifluoromethyl)phenyl)-3-(2-(1-methyl-1H-imidazo[1,2-b]pyrazole-7-carbonyl)-2-azaspiro[3.3]heptan-6-yl)urea], the inhibition constant (Ki) at DDR2 (setting [1]) and on DDR1 (setting [2]) was less than 5 nM throughout.
As for `O=C(Nc1cc(C(F)(F)F)ccc1F)NC1CC2(C1)CN(C(=O)c1cnn3ccncc13)C2` [Example 17, 1-(2-fluoro-5-(trifluoromethyl)phenyl)-3-(2-(pyrazolo[1,5-a]pyrazine-3-carbonyl)-2-azaspiro[3.3]heptan-6-yl)urea], the values for the Ki at DDR2 (setting [1]) and on DDR1 (setting [2]) were 5 to 25 nM and less than 5 nM, respectively.
As for `Cn1ccn2ncc(C(=O)N3CC4(CC(NC(=O)Nc5cc(C(F)(F)F)ccn5)C4)C3)c12` [Example 75, 1-(2-(1-methyl-1H-imidazo[1,2-b]pyrazole-7-carbonyl)-2-azaspiro[3.3]heptan-6-yl)-3-(4-(trifluoromethyl)pyridin-2-yl)urea], the values for the Ki on DDR2 (setting [1]) and at DDR1 (setting [2]) were 5 to 25 nM and less than 5 nM, respectively.
For the molecule `O=C(Nc1cccc(C(F)(F)F)c1)NC1CC2(C1)CN(C(=O)c1ccnc3cc[nH]c13)C2` [Example 46, 1-(2-(1H-pyrrolo[3,2-b]pyridine-7-carbonyl)-2-azaspiro[3.3]heptan-6-yl)-3-(3-(trifluoromethyl)phenyl)urea], the Ki on DDR2 (setting [1]) and on DDR1 (setting [2]) was less than 5 nM each time.
With `Cn1ccn2ncc(C(=O)N3CC4(CC(OC(=O)Nc5cc(C(F)(F)F)ccn5)C4)C3)c12` [Example 296, 2-(1-methyl-1H-imidazo[1,2-b]pyrazole-7-carbonyl)-2-azaspiro[3.3]heptan-6-yl(4-(trifluoromethyl)pyridin-2-yl)carbamate], the Ki on DDR2 (setting [1]) was 5 to 25 nM; on DDR1 (setting [2]), less than 5 nM.
